US20150148551A1, “GENISTEIN FOR REDUCING LEVELS OF STORAGE COMPOUNDS IN THE TREATMENT AND/OR PREVENTION OF LYSOSOMAL STORAGE DISEASES (LSDS)” (3G THERAPEUTICS, INC., priority 2012, published 2015)

How the values were obtained:
NAGLU = assay: DNA microarray, NAGLU expression in fibroblasts exposed to genistein; format: cell-based, human; conditions: for NAGLU fold change Average: 48 h vs DMSO
Protocol: (§1) The experiments were conducted to characterise the transcriptomic profile of human fibroblast cells exposed to genistein, and in particular to determine the expression of genes encoding lysosomal enzymes involved in metabolism (i.e. synthesis and degradation) of organic substances. The absence or deficiency of these enzymes' activity is responsible for occurrence of various lysosomal storage diseases (LSD) (including MPS). The tested hypothesis assumed that genistein influences the expression of many genes, among which there are genes coding for enzymes required in metabolism of compounds, which are pathologically stored in LSD. The results provide important information regarding genistein action on the molecular level within the range of gene expression modulation by this substance. The experiment was conducted in biological quintuplicates. Human dermal fibroblasts (HDFa) were exposed in vitro for 1, 24 or 48 hours to: 30, 60 or 100 μM of genistein; 0.05% DMSO (K1); or were untreated (control cells) (K2), and total RNA was isolated and analysed.
(§2) Fibroblast cells were grown in Dulbecco (DMEM) medium supplemented with 10% fetal bovine serum (FBS) with the addition of 1% antibiotics and anti-fungal agents at 37° C. in humidified atmosphere of 5% CO2, until the required confluency was obtained.
(§3) To determine the effect of tested compound on the transcriptom of the fibroblast cells, the growth medium was replaced with fresh medium, either non-supplemented (0.05% DMSO), or containing genistein (30, 60 or 100 μM, in 0.05% DMSO). The exposure was done for 1, 24 or 48 hours.
(§4) Total RNA was isolated from fibroblasts using High Pure RNA Isolation Kit according to the protocol and then it was quantitatively evaluated using Quant-It™ RiboGreen® Assay Kit.
(§5) Biotinylated cRNA was prepared using Ambion Total PrepAmp Kit for Illumina arrays.
(§6) Standard hybridization and quantitative image analysis procedures—Illumina hybridization protocol and Illumina scanning protocol, were used.
(§7) Processing of the results was done during data definition, including: background correction (using background subtraction method), normalization (using quantile normalization algorithm with Illumina GenomeStudio software package: gene expression module version 1.9.0) and summarization (using method, which sums the values of signal intensities from a set of probes).

ARSG = assay: DNA microarray, ARSG expression in fibroblasts exposed to genistein; format: cell-based, human; conditions: for ARSG fold change Average: 48 h vs DMSO
Protocol: as §1, §2, §3, §4, §5, §6, §7

HS3ST3A1 = assay: DNA microarray, HS3ST3A1 expression in fibroblasts exposed to genistein; format: cell-based, human
Protocol: as §1, §2, §3, §4, §5, §6, §7

CHST14 = assay: DNA microarray, CHST14 expression in fibroblasts exposed to genistein; format: cell-based, human
Protocol: as §1, §2, §3, §4, §5, §6, §7

XYLT1 = assay: DNA microarray, XYLT1 expression in fibroblasts exposed to genistein; format: cell-based, human
Protocol: as §1, §2, §3, §4, §5, §6, §7

[1] = humans and animals; cited from earlier work
SMPD1 = assay: DNA microarray, SMPD1 expression in fibroblasts exposed to genistein; format: cell-based, human; conditions: for SMPD1 fold change Average: 48 h vs DMSO
Protocol: as §1, §2, §3, §4, §5, §6, §7

CTSD = assay: DNA microarray, CTSD expression in fibroblasts exposed to genistein; format: cell-based, human; conditions: for CTSD fold change Average: 48 h vs DMSO
Protocol: as §1, §2, §3, §4, §5, §6, §7

O=c1c(-c2ccc(O)cc2)coc2cc(O)cc(O)c12 [genistein, 4′,5,7-trihydroxy-3-phenylchromen-4-one]
NAGLU fold change Average (NAGLU; 60 μM): 1.231 fold change | NAGLU fold change Average 1h100/1hK1 (NAGLU; 100 μM, 1 h vs 0.05% DMSO): 1.037 fold change | NAGLU fold change Average (NAGLU; 100 μM): 1.303 fold change | ARSG fold change Average 1h30/1hK1 (ARSG; 30 μM, 1 h vs 0.05% DMSO): 1.083 fold change | ARSG fold change Average (ARSG; 30 μM): 1.3921 fold change | ARSG fold change Average 1h60/1hK1 (ARSG; 60 μM, 1 h vs 0.05% DMSO): 1.204 fold change | ARSG fold change Average (ARSG; 60 μM): 2.488 fold change | ARSG fold change Average 1h100/1hK1 (ARSG; 100 μM, 1 h vs 0.05% DMSO): 0.961 fold change | ARSG fold change Average (ARSG; 100 μM): 1.81 fold change | HS3ST3A1 fold change Average 1h30/1hK1 (HS3ST3A1; 30 μM, 1 h vs 0.05% DMSO): 1.027 fold change | HS3ST3A1 fold change Average 24h30/24hK1 (HS3ST3A1; 30 μM, 24 h vs 0.05% DMSO): 0.835 fold change | HS3ST3A1 fold change Average 48h30/48hK1 (HS3ST3A1; 30 μM, 48 h vs 0.05% DMSO): 0.7933 fold change | HS3ST3A1 fold change Average 1h60/1hK1 (HS3ST3A1; 60 μM, 1 h vs 0.05% DMSO): 0.9002 fold change | HS3ST3A1 fold change Average 24h60/24hK1 (HS3ST3A1; 60 μM, 24 h vs 0.05% DMSO): 0.5744 fold change | HS3ST3A1 fold change Average 48h61/48hK1 (HS3ST3A1; 60 μM, 48 h vs 0.05% DMSO): 0.6043 fold change | HS3ST3A1 fold change Average 1h100/1hK1 (HS3ST3A1; 100 μM, 1 h vs 0.05% DMSO): 1.047 fold change | HS3ST3A1 fold change Average 24h100/24hK1 (HS3ST3A1; 100 μM, 24 h vs 0.05% DMSO): 0.5452 fold change | HS3ST3A1 fold change Average 48h100/48hK1 (HS3ST3A1; 100 μM, 48 h vs 0.05% DMSO): 0.569 fold change | CHST14 fold change Average 1h30/1hK1 (CHST14; 30 μM, 1 h vs 0.05% DMSO): 1.007 fold change | CHST14 fold change Average 24h30/24hK1 (CHST14; 30 μM, 24 h vs 0.05% DMSO): 0.8234 fold change | CHST14 fold change Average 48h30/48hK1 (CHST14; 30 μM, 48 h vs 0.05% DMSO): 0.9217 fold change | CHST14 fold change Average 1h60/1hK1 (CHST14; 60 μM, 1 h vs 0.05% DMSO): 0.851 fold change | CHST14 fold change Average 24h60/24hK1 (CHST14; 60 μM, 24 h vs 0.05% DMSO): 0.8184 fold change | CHST14 fold change Average 48h61/48hK1 (CHST14; 60 μM, 48 h vs 0.05% DMSO): 0.8526 fold change | CHST14 fold change Average 1h100/1hK1 (CHST14; 100 μM, 1 h vs 0.05% DMSO): 1.06 fold change | CHST14 fold change Average 24h100/24hK1 (CHST14; 100 μM, 24 h vs 0.05% DMSO): 0.8438 fold change | CHST14 fold change Average 48h100/48hK1 (CHST14; 100 μM, 48 h vs 0.05% DMSO): 0.6534 fold change | XYLT1 fold change Average 1h30/1hK1 (XYLT1; 30 μM, 1 h vs 0.05% DMSO): 1.058 fold change | XYLT1 fold change Average 24h30/24hK1 (XYLT1; 30 μM, 24 h vs 0.05% DMSO): 0.8611 fold change | XYLT1 fold change Average 48h30/48hK1 (XYLT1; 30 μM, 48 h vs 0.05% DMSO): 0.9745 fold change | XYLT1 fold change Average 24h60/24hK1 (XYLT1; 60 μM, 24 h vs 0.05% DMSO): 0.6217 fold change | XYLT1 fold change Average 1h100/1hK1 (XYLT1; 100 μM, 1 h vs 0.05% DMSO): 1 fold change | XYLT1 fold change Average 24h100/24hK1 (XYLT1; 100 μM, 24 h vs 0.05% DMSO): 0.6324 fold change | XYLT1 fold change Average 48h100/48hK1 (XYLT1; 100 μM, 48 h vs 0.05% DMSO): 0.921 fold change | tolerability [1]: well-tolerated | SMPD1 fold change Average 1h30/1hK1 (SMPD1; 30 μM, 1 h vs 0.05% DMSO): 1.0078 fold change | SMPD1 fold change Average (SMPD1; 30 μM): 1.2419 fold change | SMPD1 fold change Average 1h60/1hK1 (SMPD1; 60 μM, 1 h vs 0.05% DMSO): 0.9831 fold change | SMPD1 fold change Average (SMPD1; 60 μM): 1.457 fold change | SMPD1 fold change Average 1h100/1hK1 (SMPD1; 100 μM, 1 h vs 0.05% DMSO): 1.012 fold change | SMPD1 fold change Average (SMPD1; 100 μM): 1.673 fold change | CTSD fold change Average 1h30/1hK1 (CTSD; 30 μM, 1 h vs 0.05% DMSO): 0.9734 fold change | CTSD fold change Average (CTSD; 30 μM): 1.3322 fold change | CTSD fold change Average 1h60/1hK1 (CTSD; 60 μM, 1 h vs 0.05% DMSO): 1.119 fold change | CTSD fold change Average (CTSD; 60 μM): 1.302 fold change | CTSD fold change Average 1h100/1hK1 (CTSD; 100 μM, 1 h vs 0.05% DMSO): 1.018 fold change | CTSD fold change Average (CTSD; 100 μM): 1.939 fold change
